Where a SMILES comes first, the peptide text is derived from it.
Legend:
[1] = tested on: K562; assay: Cytotoxicity against human K562 cells after 72 hrs by sulforhodamine B assay; format: functional, cell-based; conditions: Homo sapiens, K562, 72 h
[2] = tested on: Micrococcus luteus; assay: Antibacterial activity against Micrococcus luteus IFC 12708 measured after 24 hrs; format: functional; conditions: IFC 12708, 24 h
[3] = tested on: Aspergillus fumigatus; assay: Antifungal activity against Aspergillus fumigatus HIC 6094 measured after 48 to 72 hrs; format: functional
[4] = tested on: SK-HEP1; assay: Cytotoxicity against human SKHEP1 cells after 72 hrs by sulforhodamine B assay; format: functional, cell-based; conditions: Homo sapiens, SK-HEP1, 72 h
[5] = tested on: Trichophyton rubrum; assay: Antifungal activity against Trichophyton rubrum IFO 9185 measured after 48 to 72 hrs; format: functional
[6] = tested on: Bacillus spizizenii; assay: Antibacterial activity against Bacillus subtilis ATCC 6633 measured after 24 hrs; format: functional; conditions: ATCC 6633, 24 h
[7] = tested on: SNU-638; assay: Cytotoxicity against human SNU638 cells after 72 hrs by sulforhodamine B assay; format: functional, cell-based; conditions: Homo sapiens, SNU-638, 72 h
[8] = tested on: Staphylococcus aureus; assay: Antibacterial activity against Staphylococcus aureus ATCC 6538P measured after 24 hrs; format: functional
[9] = tested on: Proteus vulgaris; assay: Antibacterial activity against Proteus vulgaris ATCC 3851 measured after 24 hrs; format: functional; conditions: ATCC 3851, 24 h
[10] = tested on: A549; assay: cells; conditions: Homo sapiens, A549, 72 h
Description: Cytotoxicity against human A549 cells after 72 hrs by sulforhodamine B assay

[11] = tested on: Trichophyton mentagrophytes; assay: Antifungal activity against Trichophyton mentagrophytes IFO 40996 measured after 48 to 72 hrs; format: functional
[12] = tested on: HCT-116; assay: Cytotoxicity against human HCT116 cells after 72 hrs by sulforhodamine B assay; format: functional, cell-based; conditions: Homo sapiens, HCT-116, 72 h
[13] = tested on: Salmonella typhimurium; assay: Antibacterial activity against Salmonella typhimurium ATCC 14028 measured after 24 hrs; format: functional, Salmonella enterica subsp. enterica serovar Typhimurium; conditions: Salmonella enterica, ATCC 14028, 24 h
[14] = tested on: MDA-MB-231; assay: Cytotoxicity against human MDA-MB-231 cells after 72 hrs by sulforhodamine B assay; format: functional, cell-based; conditions: Homo sapiens, MDA-MB-231, 72 h
[15] = target: Sodium/potassium-transporting ATPase; assay: Inhibition of potassium-activated sodium/potassium ATPase in human placenta using 3-O-methylfluorescein phosphate as substrate measured for 90 secs by fluorescence assay
[16] = tested on: Escherichia coli; assay: Antibacterial activity against Escherichia coli ATCC 25922 measured after 24 hrs; format: functional; conditions: ATCC 25922, 24 h
[17] = tested on: Candida albicans; assay: Antifungal activity against Candida albicans ATCC 10231 measured after 48 to 72 hrs; format: functional
[18] = Inhibition of recombinant bacterial sortase A using Dabcyl-QALPETGEE-Edans as substrate measured after 1 hr by fluorescence assay; set-up: species or system Bacteria

Row | Structure (SMILES) | IC50 [1] | MIC [2] | MIC [3] | IC50 [4] | MIC [5] | MIC [6] | IC50 [7] | MIC [8] | MIC [9] | IC50 [10] | MIC [11] | IC50 [12] | MIC [13] | IC50 [14] | IC50 [15] | MIC [16] | MIC [17] | IC50 [18]
1 | CC[C@H](C)[C@@H]1NC(=O)[C@H](Cc2ccccc2)NC(=O)[C@@H]2CCCN2C(=O)[C@@H]([C@H](C)O)NC(=O)[C@@H]2CCCN2C(=O)[C@H](CO)NC(=O)[C@H](C)NC1=O | 30 µM | > 128 µM | > 128 µM | 7.2 µM | > 128 µM | > 128 µM | 24 µM | > 128 µM | > 128 µM | 7.4 µM | > 128 µM | 4.5 µM | > 128 µM | 10 µM | > 100 µM | > 128 µM | > 128 µM | > 100 µM
2 | CC(C)C[C@@H]1NC(=O)[C@H](CO)NC(=O)[C@@H]2CCCN2C(=O)[C@H](Cc2ccc(O)cc2)NC(=O)[C@H](Cc2ccc(O)cc2)NC(=O)[C@@H]2CCCN2C(=O)[C@H](Cc2ccc(O)cc2)NC1=O (HELM PEPTIDE1{L.Y.P.Y.Y.P.S}$PEPTIDE1,PEPTIDE1,1:R1-7:R2$$$V2.0) | > 50 µM | > 128 µM | > 128 µM | > 50 µM | > 128 µM | > 128 µM | > 50 µM | > 128 µM | > 128 µM | > 50 µM | > 128 µM | > 50 µM | > 128 µM | > 50 µM | > 100 µM | > 128 µM | > 128 µM | > 100 µM
3 | CC[C@H](C)[C@@H]1NC(=O)[C@H](C)NC(=O)[C@H](CC[S+](C)[O-])NC(=O)[C@H](C)NC(=O)[C@H](CC(N)=O)NC(=O)[C@H](Cc2ccccc2)NC(=O)[C@@H]2CCCN2C1=O (some centres undefined) (HELM PEPTIDE1{A.I.P.F.N.A.[CS(=O)CC[C@H](N[*:1])C(=O)[*:2]]}$PEPTIDE1,PEPTIDE1,1:R1-7:R2$$$V2.0) | 11 µM | > 128 µM | > 128 µM | 13 µM | > 128 µM | > 128 µM | 12 µM | > 128 µM | > 128 µM | 15 µM | > 128 µM | 12 µM | > 128 µM | 12 µM | > 100 µM | > 128 µM | > 128 µM | > 100 µM
4 | CC[C@H](C)[C@@H]1NC(=O)[C@@H]2CCCN2C(=O)[C@H](Cc2ccc(O)cc2)NC(=O)[C@@H]2CCCN2C(=O)[C@H]([C@@H](C)CC)NC(=O)[C@@H]2CCCN2C(=O)[C@H](Cc2ccccc2)NC1=O (HELM PEPTIDE1{F.P.I.P.Y.P.I}$PEPTIDE1,PEPTIDE1,1:R1-7:R2$$$V2.0) | 33 µM | > 128 µM | > 128 µM | 7.7 µM | > 128 µM | > 128 µM | 37 µM | > 128 µM | > 128 µM | 6.7 µM | > 128 µM | 3.9 µM | > 128 µM | 9.1 µM | > 100 µM | > 128 µM | > 128 µM | > 100 µM
5 | CC[C@H](C)[C@@H]1NC(=O)[C@@H]2CCCN2C(=O)[C@H](Cc2ccccc2)NC(=O)[C@@H]2CCCN2C(=O)[C@H](Cc2ccc(O)cc2)NC(=O)[C@@H]2CCCN2C(=O)[C@H]([C@@H](C)CC)NC1=O [PHAKELLISTATIN 2] (HELM PEPTIDE1{F.P.I.I.P.Y.P}$PEPTIDE1,PEPTIDE1,1:R1-7:R2$$$V2.0) | 3.2 µM | > 128 µM | > 128 µM | 0.77 µM | > 128 µM | > 128 µM | 1.6 µM | > 128 µM | > 128 µM | 0.66 µM | > 128 µM | 0.71 µM | > 128 µM | 1.3 µM | > 100 µM | > 128 µM | > 128 µM | > 100 µM
6 | C[C@@H]1NC(=O)[C@H]([C@@H](C)O)NC(=O)[C@H](Cc2ccc(O)cc2)NC(=O)[C@@H]2CCCN2C(=O)[C@H](Cc2ccc(O)cc2)NC(=O)[C@H](CCCNC(=N)N)NC(=O)[C@@H]2CCCN2C(=O)[C@H](CC(N)=O)NC1=O [CYCLONELLIN] (HELM PEPTIDE1{A.N.P.R.Y.P.Y.T}$PEPTIDE1,PEPTIDE1,1:R1-8:R2$$$V2.0) | > 50 µM | > 128 µM | > 128 µM | > 50 µM | > 128 µM | > 128 µM | > 50 µM | > 128 µM | > 128 µM | > 50 µM | > 128 µM | > 50 µM | > 128 µM | > 50 µM | > 100 µM | > 128 µM | > 128 µM | > 100 µM
7 | CC[C@H](C)[C@@H]1NC(=O)[C@H](Cc2ccccc2)NC(=O)[C@@H]2CCCN2C(=O)[C@H](Cc2ccc(O)cc2)NC(=O)[C@H](CCC(=O)O)NC(=O)[C@@H]2CCCN2C(=O)[C@@H]2CCCN2C1=O (HELM PEPTIDE1{E.Y.P.F.I.P.P}$PEPTIDE1,PEPTIDE1,1:R1-7:R2$$$V2.0) | 3.9 µM | > 128 µM | > 128 µM | 11 µM | > 128 µM | > 128 µM | 11 µM | > 128 µM | > 128 µM | 19 µM | > 128 µM | 6.2 µM | > 128 µM | 17 µM | > 100 µM | > 128 µM | > 128 µM | > 100 µM
8 | CC[C@H](C)[C@@H]1NC(=O)[C@H](C)NC(=O)[C@H](CC(C)C)NC(=O)[C@@H]2CCCN2C(=O)[C@H](CC(=O)O)NC(=O)[C@H](Cc2ccc(O)cc2)NC(=O)[C@@H]2CCCN2C1=O (HELM PEPTIDE1{A.I.P.Y.D.P.L}$PEPTIDE1,PEPTIDE1,1:R1-7:R2$$$V2.0) | > 50 µM | > 128 µM | > 128 µM | > 50 µM | > 128 µM | > 128 µM | > 50 µM | > 128 µM | > 128 µM | > 50 µM | > 128 µM | > 50 µM | > 128 µM | > 50 µM | > 100 µM | > 128 µM | > 128 µM | > 100 µM
9 | CC[C@H](C)[C@@H]1NC(=O)[C@H](Cc2ccccc2)NC(=O)[C@@H]2CCCN2C(=O)[C@H](Cc2ccccc2)NC(=O)[C@@H]2CCCN2C(=O)[C@H](CCC(N)=O)NC(=O)[C@@H]2CCCN2C(=O)[C@H](Cc2ccccc2)NC1=O [PHAKELLI STATIN 11] (HELM PEPTIDE1{F.I.F.P.Q.P.F.P}$PEPTIDE1,PEPTIDE1,1:R1-8:R2$$$V2.0) | 5.6 µM | > 128 µM | > 128 µM | 1.7 µM | > 128 µM | > 128 µM | 6.9 µM | > 128 µM | > 128 µM | 2.8 µM | > 128 µM | 1.6 µM | > 128 µM | 3.2 µM | > 100 µM | > 128 µM | > 128 µM | > 100 µM
10 | CC[C@H](C)[C@@H]1NC(=O)[C@@H]2CCCN2C(=O)[C@@H]2CCCN2C(=O)[C@H]([C@@H](C)CC)NC(=O)[C@H](Cc2ccc(O)cc2)NC(=O)[C@@H]2CCCN2C(=O)[C@@H]2CCCN2C(=O)[C@H](CC(C)C)NC(=O)[C@H](C(C)C)NC(=O)[C@H](Cc2ccccc2)NC1=O (HELM PEPTIDE1{F.V.L.P.P.Y.I.P.P.I}$PEPTIDE1,PEPTIDE1,1:R1-10:R2$$$V2.0) | 0.29 µM | > 128 µM | > 128 µM | 2.3 µM | > 128 µM | > 128 µM | 1.7 µM | > 128 µM | > 128 µM | 0.54 µM | > 128 µM | 0.1 µM | > 128 µM | 2.5 µM | > 100 µM | > 128 µM | > 128 µM | > 100 µM
11 | CC[C@H](C)[C@@H]1NC(=O)[C@@H]2CCCN2C(=O)[C@@H]2CCCN2C(=O)[C@H](C(C)C)NC(=O)[C@H](Cc2ccc(O)cc2)NC(=O)[C@@H]2CCCN2C(=O)[C@@H]2CCCN2C(=O)[C@H](CC(C)C)NC(=O)[C@H](C(C)C)NC(=O)[C@H](Cc2ccccc2)NC1=O (HELM PEPTIDE1{F.V.L.P.P.Y.V.P.P.I}$PEPTIDE1,PEPTIDE1,1:R1-10:R2$$$V2.0) | 1.1 µM | > 128 µM | > 128 µM | 12 µM | > 128 µM | > 128 µM | 2.2 µM | > 128 µM | > 128 µM | 1.4 µM | > 128 µM | 1 µM | > 128 µM | 8.6 µM | > 100 µM | > 128 µM | > 128 µM | > 100 µM
12 | COc1cc([C@@H]2c3cc4c(cc3[C@@H](O[C@@H]3O[C@@H]5CO[C@@H](C)O[C@H]5[C@H](O)[C@H]3O)[C@H]3COC(=O)[C@H]23)OCO4)cc(OC)c1O [ETOPOSIDE] | 1.3 µM | – | – | 0.93 µM | – | – | 0.43 µM | – | – | 0.72 µM | – | 0.68 µM | – | 4.4 µM | – | – | – | –

— ChEMBL document CHEMBL4145614, “Cyclopeptides from the Sponge Stylissa flabelliformis” (J Nat Prod, 2018)
